Measurements: paper PMC3906007, “Discovery of a Small Molecule Agonist of Phosphatidylinositol 3-Kinase p110α That Reactivates Latent HIV-1” (PLoS ONE, 2014)

Tests used:
[1] = parameters: method as in PMID 20936324; details: phase II clinical trial, ovarian cancer; cited from earlier work
[2] = tested on: T cell; parameters: method as in PMID 22732922; details: cited from earlier work
[3] = tested on: latent HIV-1 in J89GFP cells; test: Latent HIV-1 reactivation in J89GFP cells (EGFP positive cells, flow cytometry); assay type: cell-based; details: J89GFP
Method: Three different cell lines of HIV-1 latency were used in this study. These included J89GFP, U1 and ACH-2 cells. The J89GFP cells were a kind gift from Dr. David Levy. The ACH-2 and U1 cells were obtained through the AIDS Research and Reference Reagent Program, Division of AIDS, NIAID, NIH: Dr. Thomas Folks contributor [19]–[21]. Reactivation of latent HIV-1 in the J89GFP cells was measured by quantifying the percentage of EGFP positive cells using a BD FACScan flow cytometer with BD FACSDiva software (BD Biosciences, CA), as described previously. Reactivation of latent HIV-1 in the ACH-2 and U 1 cells was assessed by quantitative analysis of initiated and elongated HIV-1 transcripts, as described previously. All 3 cell lines were maintained in RMPI 1640 medium supplemented with 10% FBS, 0.3 mg/mL L-glutamine, 100 U/mL penicillin, and 100 µg/mL streptomycin at 37°C in humidified air with 5% CO2.
To identify novel activators of latent HIV-1 expression, we screened 640 pure natural products from the TimTec Natural Compound Library at a concentration of 10 ng/mL for 24 hrs in a Jurkat cell (J89GFP) model of latency for their cytotoxicity and ability to reactivate HIV-1 expression. J89GFP cells contain a stably integrated, full-length HIV-1 provirus with an enhanced GFP (EGFP) reporter incorporated into the viral genome. The viral genome in these cells is transcriptionally silent. However, upon stimulation viral transcription is activated and viral expression can be measured by EGFP production. […].

[4] = Cytotoxicity (MTT or CellTiter 96), CD8+-depleted MNC; assay type: cell-based; details: human, CD8+-depleted mononuclear cells (MNC) from whole blood; 24 hour incubation; mean of 2 replicates
Method: (§1) Following a 24 hour incubation period, cell viability was measured using either the MTT (Roche Applied Science, Indianapolis, IN) or CellTiter 96 proliferation (Promega, WI) assay.
(§2) CD8+T-cells were depleted from whole blood using RosetteSep Human CD8 Depletion Cocktail (StemCell Technologies, Vancouver, BC) according to manufacturer's instructions. 2×10^6 CD4^+ MNC cells were seeded in triplicate per treatment in 48-well plates and allowed to rest overnight. All wells were maintained in 81 nM efavirenz. […] Activation controls were treated with CD3/CD28 Dynabeads (Life Technologies, Grand Island, NY). After 7 days of incubation, supernatants from triplicate wells were pooled, centrifuged (500 g×5 min), and stored at −80°C. HIV-1 RNA levels in supernatants were determined using the COBAS® AmpliPrep/COBAS® TaqMan® HIV-1 Test, v2.0 (Roche, Indianapolis, IN).

[5] = tested on: PI3K p110δ RNA; test: PI3K isoform RNA transcript levels in J89GFP cells, p110δ; assay type: cell-based; details: 5 µM
[6] = Cytotoxicity (MTT or CellTiter 96), Jurkat; assay type: cell-based; details: human, Jurkat cells; 24 hour incubation; mean ± SD, 3 replicates
Method: as §1

[7] = tested on: latent HIV-1 in CD8+-depleted MNC; assay type: cell-based; details: across all four donors; 0.5 or 2 µM
Text: Healthy HIV-1 uninfected blood donors and HIV-1-infected donors on suppressive cART with plasma HIV-1 RNA less than 50 copies/mL for >2 year provided written informed consent and underwent a large volume phlebotomy (100–200 mLs). The protocol for blood donation was approved by the Institutional Review Board of the University of Pittsburgh (IRB #PRO10070203).
as §2, with “overnight.” for “overnight. All wells were maintained in 81 nM efavirenz.”

[8] = Cytotoxicity (MTT or CellTiter 96), HeLa; assay type: cell-based; details: human, HeLa cells; 24 hour incubation; mean ± SD, 3 replicates
Method: as §1

[9] = Cytotoxicity (MTT or CellTiter 96), 293T; assay type: cell-based; details: human, 293T cells; 24 hour incubation; mean ± SD, 3 replicates
Method: as §1

[10] = tested on: HIV-1 RNA expression in resting CD4+ T cells; details: single 400 mg dose; 8 HIV-infected patients on suppressive cART; cited from earlier work

CCC/C=C/C=C/C(=O)O[C@H]1/C(=C/C(=O)OC)C[C@H]2C[C@H]([C@@H](C)O)OC(=O)C[C@H](O)C[C@@H]3C[C@H](OC(C)=O)C(C)(C)[C@](O)(C[C@@H]4C/C(=C/C(=O)OC)C[C@H](/C=C/C(C)(C)[C@]1(O)O2)O4)O3 [bryostatin]
Adverse event in study participants [1]: severe myalgia in all study participants

CC(=O)O[C@@]12C[C@@H](C)[C@@]3(O)[C@@H](C=C(CO)C[C@]4(O)C(=O)C(C)=C[C@@H]34)[C@@H]1C2(C)C [prostratin, reference compound]
Global T cell activation [2]: induces global T cell activation
Latent HIV-1 reactivation activity in presence of PI3K inhibitor wortmannin ([3]; 20 nM wortmannin): remained unaffected
Latent HIV-1 reactivation activity in presence of Akt Inhibitor IV ([3]; 500 nM Akt Inhibitor IV): remained unaffected
Latent HIV-1 reactivation activity in presence of PKC inhibitor Gö6983 ([3]; 500 nM Go6983): attenuated
Latent HIV-1 reactivation activity in presence of JNK inhibitor SP600125 ([3]; 1 µM SP00125): remained unaffected
Latent HIV-1 reactivation activity in presence of NFAT/calcineurin inhibitor cyclosporin A ([3]; 1 µM cyclosporin A): remained unaffected

O=C(CCCCCCC(=O)Nc1ccccc1)NO [SAHA, vorinostat, reference compound]
CC50 at 24 h [4]: 0.7 µM
Effect on PI3K p110δ RNA transcript levels / gene expression [5]: significantly up-regulate
CC50 at 24 h [6]: 10 ± 0.1 µM
Capacity to increase HIV-1 expression in the CD8+-depleted MNC [7]: very limited capacity
CC50 at 24 h [8]: 11.3 ± 0.3 µM
CC50 at 24 h [9]: 14.1 ± 0.2 µM
HIV-1 RNA expression in resting CD4+ T cells [10]: induced an increase in HIV-1 RNA expression
